According to patent US4189607A, “Anilionotropone derivatives” (priority 1979, dated 1980):
Structures can show the parent of a compound that is named as a salt.

Assays:
rat paw edema = test: Anti-inflammatory activity, carrageenin rat paw edema (Winter et al); type: in vivo, Male Wistar strain rats; conditions: p.o., four hours after injection of carrageenin
Protocol: Experiment 1: Anti-inflammatory activity
Anti-inflammatory activity was evaluated by the method of rat paw edema (Winter et al, J. Pharmacol. Exp. Ther., 141, 369 (1963) ). Six male Wistar strain rats were used in each group and the volume of each paw was measured four hours after injection of carrageenin.

acetic acid writhing = test: Analgesic activity, acetic acid writhing test (Koster et al); type: in vivo, Male ddY strain mice; conditions: p.o.
Text: Experiment 3: Analgesic activity
Male ddY strain mice in groups of ten each were used for evaluation of analgesic activity by the acetic acid writhing test (Koster et al, Federation Proc., 18, 412 (1959). The results are shown in Tables 3 and 4.

gastric lesions = test: Gastric ulcerogenicity (gastric lesions); type: in vivo, Male Wistar strain rats; conditions: p.o., 18 hours fasting prior to autopsy
Text: Experiment 4: Gastric ulcerogenicity […] The gastric lesions induced was expressed as incidence (number of rats with gastric lesions/number of the test rats) and lesion index (sum of areas damaged).

[1] = Analgesic activity, method of Randall-Selitto with slight modification; type: in vivo, Male Wistar strain rats; conditions: 25 mg/kg orally, vs Cpd. 3 at 100 mg/kg
Protocol: Experiment 2: Analgesic activity
Male Wistar strain rats in groups of six each were used for the evaluation of analgesic activity by the method of Randall-Selitto (Arch. Intern. Pharmacodyn., 111, 409 (1957) ) with slight modification. In a graph where the load was plotted on the ordinate and the time was plotted on the abscissa, the curve obtained when Cpd. 1 was orally administered in a dose of 25 mg/kg was substantially in agreement with the curve obtained when Cpd. 3 was orally administered in a dose of 100 mg/kg. […] 1 was administered in a dose of 50 mg/kg and the Cpd 3 was administered in a dose of 200 mg/kg.

[2] = Table 6, 100 + 200 mg/kg, 200 mg/kg

Row | SMILES | Inhibition (%) (rat paw edema; Table 2, 100 mg/kg, 100 mg/kg) | Inhibition (%) (acetic acid writhing; Table 4, 100 mg/kg) | Incidence (number of rats with gastric lesions/number of the test rats) (gastric lesions; [2]) | Lesion index (sum of areas damaged) (gastric lesions; [2]) [mm^2] | Inhibition (%) (rat paw edema; Table 1, 25 mg/kg) | Inhibition (%) (rat paw edema; Table 1, 50 mg/kg) | Inhibition (%) (rat paw edema; Table 1, 100 mg/kg) | Inhibition (%) (rat paw edema; Table 2, 100 mg/kg) | Inhibition (%) (acetic acid writhing; Table 3, 200 mg/kg) | Lesion index (sum of areas damaged) (gastric lesions; Table 5, 25 + 50 mg/kg) [mm^2] | Lesion index (sum of areas damaged) (gastric lesions; Table 5, 50 + 100 mg/kg) [mm^2] | Lesion index (sum of areas damaged) (gastric lesions; Table 5, 100 + 200 mg/kg) [mm^2] | Lesion index (sum of areas damaged) (gastric lesions; Table 6, 100 + 200 mg/kg) [mm^2] | Load-time curve compared with Cpd. 3 [1] | Inhibition (%) (acetic acid writhing; Table 3, 100 mg/kg) | Incidence (number of rats with gastric lesions/number of the test rats) (gastric lesions; Table 5, 25 + 50 mg/kg) | Incidence (number of rats with gastric lesions/number of the test rats) (gastric lesions; Table 5, 50 + 100 mg/kg) | Incidence (number of rats with gastric lesions/number of the test rats) (gastric lesions; Table 5, 100 + 200 mg/kg)
1 | CC(C(=O)O)c1cccc(Nc2cccccc2=O)c1 (centres unmarked) [Cpd. 2-Ca salt, calcium 2-[m-(2-troponylamino)phenyl]propionate] | 43.2 | 31.2 | 2/6 | 0.12 ± 0.10 |  |  |  |  |  |  |  |  |  |  |  |  |  | 
2 | CCCCC1C(=O)N(c2ccccc2)N(c2ccccc2)C1=O [Cpd. 3, phenylbutazone, reference compound] |  | 10.7 |  |  | 22.4 | 34.7 | 54.5 | 32.5 | 18.5 | 0.02 ± 0.014 | 1.43 ± 0.43 | 6.82 ± 1.40 | 7.70 ±3.23 |  |  |  |  | 
3 | CC(C(=O)O)c1cccc(Nc2cccccc2=O)c1 (centres unmarked) [Cpd. 2, 2-[m-(2-troponylamino)phenyl]propionic acid] | 43.0 | 31.2 | 0/6 | 0 |  |  |  |  |  |  |  |  |  |  |  |  |  | 
4 | CC(C(=O)O)c1ccc(Nc2cccccc2=O)cc1 (centres unmarked) [Cpd. 1, 2-[p-(2-troponylamino)phenyl]propionic acid] |  |  |  |  | 56.8 | 50.9 | 61.0 |  |  | 0 | 0.02 ± 0.017 | 0.52 ± 0.17 |  | substantially in agreement with the curve obtained when Cpd. 3 was orally administered in a dose of 100 mg/kg | 54.8 | 0/6 | 1/6 | 4/6
